Reference: the kinase profiling compilation of Christmann-Franck et al. (2016)

How the values were obtained:
Test in all cases: KINOMEscan competition binding
Settings in all cases: compound 10.0 µM
[1] = target: TNK2 (human) (UniProt Q07912)
[2] = target: IRAK3 (human) (UniProt Q9Y616)
[3] = target: PAK4 (human) (UniProt O96013)
[4] = target: RPS6KA5 KD2 (human) (UniProt O75582)
[5] = target: LIMK1 (human) (UniProt P53667)
[6] = target: EPHB6 (human) (UniProt O15197)
[7] = target: IGF1R (human) (UniProt P08069)
[8] = target: CDK19 (human) (UniProt Q9BWU1)
[9] = target: MAPK6 (human) (UniProt Q16659)
[10] = target: CDKL3 (human) (UniProt Q8IVW4)
[11] = target: MTOR (human) (UniProt P42345)
[12] = target: JAK3 JH1 catalytic (human) (UniProt P52333)
[13] = target: CAMK2D (human) (UniProt Q13557)
[14] = target: CSNK1A1L (human) (UniProt Q8N752)
[15] = target: PRKCQ (human) (UniProt Q04759)
[16] = target: MAST1 (human) (UniProt Q9Y2H9)
[17] = target: DCLK2 (human) (UniProt Q8N568)
[18] = target: CAMK2B (human) (UniProt Q13554)
[19] = target: BLK (human) (UniProt P51451)
[20] = target: MAP3K6 (human) (UniProt O95382)
[21] = target: CDK9 (human) (UniProt P50750)
[22] = target: CAMK2G (human) (UniProt Q13555)
[23] = target: TNNI3K (human) (UniProt Q59H18)
[24] = target: PIP5K1C (human) (UniProt O60331)
[25] = target: STK16 (human) (UniProt O75716)
[26] = target: CDK2 (human) (UniProt P24941)
[27] = target: FGFR1 (human) (UniProt P11362)
[28] = target: SRPK1 (human) (UniProt Q96SB4)
[29] = target: MAP3K15 (human) (UniProt Q6ZN16)
[30] = target: DYRK2 (human) (UniProt Q92630)
[31] = target: CAMKK1 (human) (UniProt Q8N5S9)
[32] = target: FER (human) (UniProt P16591)
[33] = target: MAP3K9 (human) (UniProt P80192)
[34] = target: SRMS (human) (UniProt Q9H3Y6)
[35] = target: MAPK8 (human) (UniProt P45983)
[36] = target: NEK7 (human) (UniProt Q8TDX7)
[37] = target: MYLK4 (human) (UniProt Q86YV6)
[38] = target: DDR2 (human) (UniProt Q16832)
[39] = target: MATK (human) (UniProt P42679)
[40] = system: RET (human), P07949 [M918T]

Chain of PIP5K1C (human) (O60331 whole entry, looked up): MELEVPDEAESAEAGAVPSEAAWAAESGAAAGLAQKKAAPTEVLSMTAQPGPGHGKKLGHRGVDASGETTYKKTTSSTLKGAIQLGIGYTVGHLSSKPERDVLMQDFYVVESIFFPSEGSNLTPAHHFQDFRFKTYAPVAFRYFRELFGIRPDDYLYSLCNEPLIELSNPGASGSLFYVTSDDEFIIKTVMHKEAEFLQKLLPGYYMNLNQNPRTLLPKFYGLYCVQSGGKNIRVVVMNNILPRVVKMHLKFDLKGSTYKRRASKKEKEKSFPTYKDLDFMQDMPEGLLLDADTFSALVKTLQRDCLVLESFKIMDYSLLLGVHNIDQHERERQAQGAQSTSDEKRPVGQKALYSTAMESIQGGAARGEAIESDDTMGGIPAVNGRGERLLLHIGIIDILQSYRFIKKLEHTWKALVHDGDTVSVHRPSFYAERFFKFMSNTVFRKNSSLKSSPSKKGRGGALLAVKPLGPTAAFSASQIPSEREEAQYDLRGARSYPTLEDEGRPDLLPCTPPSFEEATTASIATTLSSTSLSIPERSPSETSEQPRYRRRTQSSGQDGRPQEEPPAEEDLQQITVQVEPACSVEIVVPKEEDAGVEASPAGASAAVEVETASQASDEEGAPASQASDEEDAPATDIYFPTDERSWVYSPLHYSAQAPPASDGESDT
Chain of MATK (human) (P42679 whole entry, looked up): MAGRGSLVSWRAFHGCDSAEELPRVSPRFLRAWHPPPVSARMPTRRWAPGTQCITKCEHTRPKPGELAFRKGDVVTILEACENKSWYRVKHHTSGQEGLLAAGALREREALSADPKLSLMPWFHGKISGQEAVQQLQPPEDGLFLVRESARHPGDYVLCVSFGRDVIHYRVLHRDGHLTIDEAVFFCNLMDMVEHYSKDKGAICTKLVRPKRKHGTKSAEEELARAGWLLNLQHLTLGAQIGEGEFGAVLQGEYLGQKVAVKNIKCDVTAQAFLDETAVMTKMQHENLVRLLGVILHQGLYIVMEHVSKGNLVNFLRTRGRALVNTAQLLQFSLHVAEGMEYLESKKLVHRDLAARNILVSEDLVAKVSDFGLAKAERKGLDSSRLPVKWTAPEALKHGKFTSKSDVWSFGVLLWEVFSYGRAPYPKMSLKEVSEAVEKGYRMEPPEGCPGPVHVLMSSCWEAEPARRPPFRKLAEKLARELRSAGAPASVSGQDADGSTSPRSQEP
Chain of MAP3K15 (human) (Q6ZN16 whole entry, looked up): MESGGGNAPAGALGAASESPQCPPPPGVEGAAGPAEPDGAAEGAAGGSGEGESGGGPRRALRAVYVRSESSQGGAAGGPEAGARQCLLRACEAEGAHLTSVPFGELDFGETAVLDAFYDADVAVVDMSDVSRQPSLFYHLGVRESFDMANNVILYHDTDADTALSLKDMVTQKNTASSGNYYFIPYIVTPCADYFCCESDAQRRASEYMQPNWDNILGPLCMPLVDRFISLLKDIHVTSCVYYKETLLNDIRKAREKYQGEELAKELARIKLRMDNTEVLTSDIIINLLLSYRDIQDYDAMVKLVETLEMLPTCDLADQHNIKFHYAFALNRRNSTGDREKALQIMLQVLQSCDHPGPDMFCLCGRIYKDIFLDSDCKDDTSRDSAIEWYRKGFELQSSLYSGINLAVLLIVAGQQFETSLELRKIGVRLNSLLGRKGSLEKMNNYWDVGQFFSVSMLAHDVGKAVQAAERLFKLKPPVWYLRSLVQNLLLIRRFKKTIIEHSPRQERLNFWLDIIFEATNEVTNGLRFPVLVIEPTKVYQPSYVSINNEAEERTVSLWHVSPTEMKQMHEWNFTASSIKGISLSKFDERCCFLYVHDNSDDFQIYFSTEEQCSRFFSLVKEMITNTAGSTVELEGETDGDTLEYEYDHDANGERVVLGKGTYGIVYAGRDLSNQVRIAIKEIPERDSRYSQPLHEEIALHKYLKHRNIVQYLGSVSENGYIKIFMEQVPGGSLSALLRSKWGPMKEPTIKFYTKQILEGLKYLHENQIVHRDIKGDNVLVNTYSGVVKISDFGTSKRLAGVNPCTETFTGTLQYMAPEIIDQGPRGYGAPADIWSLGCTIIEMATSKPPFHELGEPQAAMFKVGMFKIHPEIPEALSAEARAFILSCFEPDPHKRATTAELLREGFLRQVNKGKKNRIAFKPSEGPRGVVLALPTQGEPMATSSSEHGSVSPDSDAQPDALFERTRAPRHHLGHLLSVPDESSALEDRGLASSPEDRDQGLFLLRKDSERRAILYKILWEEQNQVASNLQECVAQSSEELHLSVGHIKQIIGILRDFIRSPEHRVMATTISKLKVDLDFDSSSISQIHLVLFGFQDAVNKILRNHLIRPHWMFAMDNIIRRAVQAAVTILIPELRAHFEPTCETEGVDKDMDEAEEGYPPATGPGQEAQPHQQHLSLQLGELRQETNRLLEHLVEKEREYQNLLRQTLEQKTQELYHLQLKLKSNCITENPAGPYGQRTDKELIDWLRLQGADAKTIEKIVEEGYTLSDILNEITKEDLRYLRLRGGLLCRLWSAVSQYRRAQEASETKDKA
Chain of FER (human) (P16591 whole entry, looked up): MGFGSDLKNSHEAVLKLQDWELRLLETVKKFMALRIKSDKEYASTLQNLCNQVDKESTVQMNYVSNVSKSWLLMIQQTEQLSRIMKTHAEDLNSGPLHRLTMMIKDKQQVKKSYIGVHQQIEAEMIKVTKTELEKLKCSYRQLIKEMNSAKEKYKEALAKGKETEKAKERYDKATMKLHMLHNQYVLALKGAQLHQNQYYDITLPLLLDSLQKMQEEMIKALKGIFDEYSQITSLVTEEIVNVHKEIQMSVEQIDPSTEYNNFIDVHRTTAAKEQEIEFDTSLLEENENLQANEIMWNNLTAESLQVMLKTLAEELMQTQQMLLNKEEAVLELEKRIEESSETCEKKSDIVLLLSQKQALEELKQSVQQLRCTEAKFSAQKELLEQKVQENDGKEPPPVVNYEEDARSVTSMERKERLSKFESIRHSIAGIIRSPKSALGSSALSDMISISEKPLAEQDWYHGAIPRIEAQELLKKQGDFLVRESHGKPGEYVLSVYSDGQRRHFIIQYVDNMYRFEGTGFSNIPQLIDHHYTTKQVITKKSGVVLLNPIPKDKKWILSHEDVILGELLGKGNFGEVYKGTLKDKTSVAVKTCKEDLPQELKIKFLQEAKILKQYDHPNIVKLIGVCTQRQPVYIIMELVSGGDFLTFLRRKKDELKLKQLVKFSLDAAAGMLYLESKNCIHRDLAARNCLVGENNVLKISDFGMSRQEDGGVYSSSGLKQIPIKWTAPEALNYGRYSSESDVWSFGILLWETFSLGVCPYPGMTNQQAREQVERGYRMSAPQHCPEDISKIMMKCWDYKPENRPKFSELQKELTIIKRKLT
Chain of MAPK6 (human) (Q16659 whole entry, looked up): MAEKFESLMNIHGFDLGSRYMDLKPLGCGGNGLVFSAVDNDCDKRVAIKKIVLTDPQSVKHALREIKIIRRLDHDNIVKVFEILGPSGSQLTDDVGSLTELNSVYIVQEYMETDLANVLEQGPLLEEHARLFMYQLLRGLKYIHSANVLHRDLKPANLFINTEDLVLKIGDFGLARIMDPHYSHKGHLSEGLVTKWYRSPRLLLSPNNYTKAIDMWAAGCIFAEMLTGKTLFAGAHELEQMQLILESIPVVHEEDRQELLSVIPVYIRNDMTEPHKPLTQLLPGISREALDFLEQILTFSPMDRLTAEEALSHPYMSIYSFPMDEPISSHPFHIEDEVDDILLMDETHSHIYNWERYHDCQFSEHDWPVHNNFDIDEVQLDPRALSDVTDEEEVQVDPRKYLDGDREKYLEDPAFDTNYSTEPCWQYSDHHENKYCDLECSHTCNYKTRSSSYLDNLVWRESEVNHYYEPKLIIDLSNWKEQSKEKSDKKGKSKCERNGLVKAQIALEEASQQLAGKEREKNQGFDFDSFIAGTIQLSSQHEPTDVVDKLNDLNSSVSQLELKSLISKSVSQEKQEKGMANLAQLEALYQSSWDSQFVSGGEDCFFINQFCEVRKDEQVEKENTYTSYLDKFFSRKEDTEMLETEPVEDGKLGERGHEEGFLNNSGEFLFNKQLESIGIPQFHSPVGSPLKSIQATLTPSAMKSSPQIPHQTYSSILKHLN
Chain of DDR2 (human) (Q16832 whole entry, looked up): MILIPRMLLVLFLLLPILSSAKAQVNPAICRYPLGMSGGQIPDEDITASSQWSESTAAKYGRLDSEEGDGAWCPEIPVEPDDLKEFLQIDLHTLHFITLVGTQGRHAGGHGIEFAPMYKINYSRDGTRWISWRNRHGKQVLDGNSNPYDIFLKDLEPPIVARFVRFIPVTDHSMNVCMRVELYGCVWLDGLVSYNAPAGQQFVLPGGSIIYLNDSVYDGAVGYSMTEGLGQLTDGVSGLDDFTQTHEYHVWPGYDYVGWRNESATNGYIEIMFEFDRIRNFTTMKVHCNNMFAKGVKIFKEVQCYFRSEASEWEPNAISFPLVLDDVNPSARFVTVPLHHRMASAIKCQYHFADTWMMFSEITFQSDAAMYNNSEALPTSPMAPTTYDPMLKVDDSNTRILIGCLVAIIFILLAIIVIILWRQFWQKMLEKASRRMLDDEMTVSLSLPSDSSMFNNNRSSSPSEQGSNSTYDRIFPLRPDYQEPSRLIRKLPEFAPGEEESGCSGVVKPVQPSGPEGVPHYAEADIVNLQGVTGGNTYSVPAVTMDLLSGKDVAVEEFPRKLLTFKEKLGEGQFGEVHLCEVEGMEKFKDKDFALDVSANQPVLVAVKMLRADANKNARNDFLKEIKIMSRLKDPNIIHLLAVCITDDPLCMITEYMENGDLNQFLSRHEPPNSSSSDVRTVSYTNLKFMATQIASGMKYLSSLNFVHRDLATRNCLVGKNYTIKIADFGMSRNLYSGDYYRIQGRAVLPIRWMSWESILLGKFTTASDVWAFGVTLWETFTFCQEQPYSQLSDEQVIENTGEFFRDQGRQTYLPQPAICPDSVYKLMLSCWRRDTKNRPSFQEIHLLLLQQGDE

Row | Structure (SMILES) | kinase still bound, per cent of control [1] | kinase still bound, per cent of control [2] | kinase still bound, per cent of control [3] | kinase still bound, per cent of control [4] | kinase still bound, per cent of control [5] | kinase still bound, per cent of control [6] | kinase still bound, per cent of control [7] | kinase still bound, per cent of control [8] | kinase still bound, per cent of control [9] | kinase still bound, per cent of control [10] | kinase still bound, per cent of control [11] | kinase still bound, per cent of control [12] | kinase still bound, per cent of control [13] | kinase still bound, per cent of control [14] | kinase still bound, per cent of control [15] | kinase still bound, per cent of control [16] | kinase still bound, per cent of control [17] | kinase still bound, per cent of control [18] | kinase still bound, per cent of control [19] | kinase still bound, per cent of control [20] | further results
1 | CCN1CCN(C(=O)Cc2ccc(Nc3ncc(F)c(Nc4ccc(C(=O)Nc5ccccc5Cl)cc4)n3)cc2)CC1 | 10% | 1.8% | 47% | 66% | 9.8% | 15% | 46% | 76% | 21% | 89% | 20% | 3.7% | 71% | 100% | 74% | 100% | 88% | 72% | 28% | 86% | kinase still bound, per cent of control [21]: 73%; kinase still bound, per cent of control [22]: 55%; kinase still bound, per cent of control [23]: 24%; kinase still bound, per cent of control [24]: 77%; kinase still bound, per cent of control [25]: 1.6%; kinase still bound, per cent of control [26]: 80%; kinase still bound, per cent of control [27]: 14%; kinase still bound, per cent of control [28]: 1.9%; kinase still bound, per cent of control [29]: 100%; kinase still bound, per cent of control [30]: 18%; kinase still bound, per cent of control [31]: 25%; kinase still bound, per cent of control [32]: 100%; kinase still bound, per cent of control [33]: 17%; kinase still bound, per cent of control [34]: 58%; kinase still bound, per cent of control [35]: 1.7%; kinase still bound, per cent of control [36]: 2.6%; kinase still bound, per cent of control [37]: 11%; kinase still bound, per cent of control [38]: 100%; kinase still bound, per cent of control [39]: 100%; kinase still bound, per cent of control [40]: 0.55%
2 | O=C1NC(=O)/C(=C/c2ccc3nccc(-c4ccncc4)c3c2)S1 | 100% | 14% | 75% | 4.6% | 88% | 39% | 100% | 4.2% | 100% | 99% | 5% | 0% | 10% | 55% | 60% | 83% | 91% | 9.6% | 77% | 96% | kinase still bound, per cent of control [21]: 16%; kinase still bound, per cent of control [22]: 28%; kinase still bound, per cent of control [23]: 79%; kinase still bound, per cent of control [24]: 28%; kinase still bound, per cent of control [25]: 4.9%; kinase still bound, per cent of control [26]: 76%; kinase still bound, per cent of control [27]: 81%; kinase still bound, per cent of control [28]: 100%; kinase still bound, per cent of control [29]: 100%; kinase still bound, per cent of control [30]: 5.4%; kinase still bound, per cent of control [31]: 12%; kinase still bound, per cent of control [32]: 50%; kinase still bound, per cent of control [33]: 76%; kinase still bound, per cent of control [34]: 67%; kinase still bound, per cent of control [35]: 18%; kinase still bound, per cent of control [36]: 88%; kinase still bound, per cent of control [37]: 2.2%; kinase still bound, per cent of control [38]: 63%; kinase still bound, per cent of control [39]: 50%; kinase still bound, per cent of control [40]: 93%
3 | C=CC(=O)Nc1cc(-n2c(=O)ccc3cnc4ccc(-c5cn[nH]c5)cc4c32)ccc1C | 100% | 0.7% | 100% | 75% | 100% | 54% | 100% | 100% | 95% | 33% | 0% | 0% | 36% | 90% | 100% | 85% | 100% | 44% | 2.4% | 75% | kinase still bound, per cent of control [21]: 100%; kinase still bound, per cent of control [22]: 45%; kinase still bound, per cent of control [23]: 100%; kinase still bound, per cent of control [24]: 42%; kinase still bound, per cent of control [25]: 52%; kinase still bound, per cent of control [26]: 84%; kinase still bound, per cent of control [27]: 80%; kinase still bound, per cent of control [28]: 39%; kinase still bound, per cent of control [29]: 56%; kinase still bound, per cent of control [30]: 0.6%; kinase still bound, per cent of control [31]: 59%; kinase still bound, per cent of control [32]: 100%; kinase still bound, per cent of control [33]: 86%; kinase still bound, per cent of control [34]: 75%; kinase still bound, per cent of control [35]: 1.9%; kinase still bound, per cent of control [36]: 100%; kinase still bound, per cent of control [37]: 88%; kinase still bound, per cent of control [38]: 75%; kinase still bound, per cent of control [39]: 100%; kinase still bound, per cent of control [40]: 51%
